Test results as given in patent publication US20140303109A1 (priority 2010, published 2014).

How the values were obtained:
[1] = test system: NF-κB DNA binding activity; assay: EMSA for NF-κB DNA binding activity, three PC lines; format: cell-based, human; conditions: 72 h; CDF/CUR 1 or 4 μMol/L, GEM 10 nMol/L
Method: The DNA binding activity of the nuclear transcription factor, NF-κB was assessed in the BxPC-3, MIAPaCa-E, and MIAPaCa-M cell lines by EMSA. […] The cells were lysed in 400 μl of lysis buffer and the reaction was set up as described earlier in Ali, et al., id. The gel was scanned using an Odyssey Infrared Imaging System, (LI-COR, Inc., Lincoln, Nebr.). Equal protein loading was ensured by immunoblotting 10 μg of nuclear protein and probing with anti-retinoblastoma antibody.

PGE2 = PGE2 immunoassay, three PC lines; format: cell-based, human; conditions: 24 h serum-free; CDF or CUR 1-4 μMol/L, GEM 10 nMol/L
miR-200b and miR-200c = assay: Real-time RT-PCR of miR-200b and miR-200c in PC cell lines; format: cell-based, human; conditions: 72 h; BxPC-3, MIAPaCa-E, MIAPaCaM
Method: The expression of miRNAs (miRNA-200a, miR-200b, and miR-21) in all three pancreatic cancer cell lines, was measured with a TaqMan MicroRNA Assay kit (Applied Biosystems, Carlsbad, Calif.) following the manufacturer's protocol. […] Real-time RT-PCR reactions were then carried out in a total volume of 25 μl reaction mixture, as described by Li, et al., id., using Smart Cycler II (Cepheid, Sunnyvale, Calif.). The data were analyzed using Ct method and were normalized by RNU6B expression in each sample.

[2] = test system: NF-κB DNA binding activity; assay: EMSA for NF-κB DNA binding activity in tumor tissue; format: in vivo, mice; conditions: MIA PaCa-2 tumors
Method: Nuclear extracts were prepared from tumor tissue induced by the MIA PaCa-2 cells using an homogenizer with 400 μl of ice cold lysis buffer extracted as described earlier. EMSA was performed using the Odyssey Infrared Imaging System with NF-κβ 1RDye labeled oligonucleotide from LI-COR, Inc. (Lincoln, Nebr.). An NF-Kβ competition control study was conducted using unlabeled NF-Kβ consensus oligonucleotide. The samples were loaded and run at 30 mA for 1 hour. The gel was scanned using Odyssey Infrared Imaging System (LI-COR, Inc.).

Compound: Nc1ccn([C@@H]2O[C@H](CO)[C@@H](O)C2(F)F)c(=O)n1 [GEM, gemcitabine]
- NF-κβ DNA binding activity [1]: activation of NF-κβ in all three cell lines
- PGE2 secretion level (PGE2): substantial increase in the level of PGE2 secretion
- expression of miR-200b and miR-200c (miR-200b and miR-200c): increased expression of miR-200b and miR-200c
- NF-κβ activation in tumor tissue [2]: activated NF-κβ levels
